The target of this experiment is T1, human recombinant progesterone receptor-B (PRB) (Homo sapiens, UniProt P06401).
T1 construct: purchased Invitrogen (Carlsbad, Calif.)
T1 sequence (P06401 1-933): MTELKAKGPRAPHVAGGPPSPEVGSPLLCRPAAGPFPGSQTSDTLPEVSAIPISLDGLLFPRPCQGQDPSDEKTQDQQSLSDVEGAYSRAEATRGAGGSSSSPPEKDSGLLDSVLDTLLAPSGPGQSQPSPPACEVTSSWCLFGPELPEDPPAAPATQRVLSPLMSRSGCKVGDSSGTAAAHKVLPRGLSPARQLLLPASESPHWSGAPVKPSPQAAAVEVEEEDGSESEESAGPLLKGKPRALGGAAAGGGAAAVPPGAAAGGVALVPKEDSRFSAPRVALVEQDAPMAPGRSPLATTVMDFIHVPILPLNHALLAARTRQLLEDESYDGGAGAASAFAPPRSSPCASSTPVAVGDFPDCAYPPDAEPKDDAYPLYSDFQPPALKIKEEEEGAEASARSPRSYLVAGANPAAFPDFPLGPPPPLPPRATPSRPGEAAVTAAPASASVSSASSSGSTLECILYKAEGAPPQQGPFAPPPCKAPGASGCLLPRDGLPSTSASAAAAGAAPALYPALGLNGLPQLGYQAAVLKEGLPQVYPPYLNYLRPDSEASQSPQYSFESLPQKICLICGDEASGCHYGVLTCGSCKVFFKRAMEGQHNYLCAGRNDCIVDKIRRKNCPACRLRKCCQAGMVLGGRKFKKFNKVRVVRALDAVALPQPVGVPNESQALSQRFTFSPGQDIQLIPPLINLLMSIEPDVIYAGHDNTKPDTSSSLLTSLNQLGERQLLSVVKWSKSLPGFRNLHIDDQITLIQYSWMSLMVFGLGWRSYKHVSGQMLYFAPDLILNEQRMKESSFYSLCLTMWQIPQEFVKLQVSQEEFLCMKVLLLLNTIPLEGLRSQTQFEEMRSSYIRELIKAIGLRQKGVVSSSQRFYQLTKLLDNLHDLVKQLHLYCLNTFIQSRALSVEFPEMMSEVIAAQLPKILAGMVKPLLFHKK
Kind of experiment: Radioactive ligand binding test, PRB cytosol, [3H]-Prog. As to conditions: [3H]-Prog about 5 nM, PRB cytosol, 4° C.; Cheng-Prusoff, Kd about 3.5 nM; read-out: PR (Ki: nM). An excerpt: Radioactive Ligand Binding Test Using Cytosols of Human Glucocorticoids Receptor, Progesterone Receptor and Mineralocorticoid Receptor
The procedures described in Neuroimmunomodulation (1994, 1, p. 66-73) and Invest. Opthalmol. Vis. Sci. (1996, 37, p. 805-813) were modified and used. In brief, cytosol preparations of human recombinant glucocorticoids receptor (GR) and human recombinant progesterone receptor-B (PRB) were purchased from Invitrogen (Carlsbad, Calif.), and a cytosol preparation of human recombinant mineralocorticoid receptor (MR) was prepared by our company (Yokohama, JP). MR cDNA was cloned into a baculovirus expression vector and expressed in insect cell Sf9. The procedures described in J. Biol. Chem. (1991, 266, p. 18072-18081), Proc. Natl. Acad. Sci. USA (1991, 88, p. 10681-10685) and Bac-to-Bac (registered trade mark) Baculovirus Expression Systems technical manual (Invitrogen) were partly modified and used as the procedures for MR gene cloning up to preparation of recombinant receptor cytosol. [^3H]-Dexamethasone (Dex, specific activity 91.0 Ci/mmol) was purchased from GE Healthcare (Buckinghamshire, UK), and [^3H]-progesterone (Prog, specific activity 103 Ci/mmol) and [3H]-aldosterone (Ald, specific activity 87.9 Ci/mmol) were each purchased from PerkinElmer (Boston, Mass.). Polypropylene round-bottomed 96 well plate was obtained from ABgene (Epsom, UK). Dimethyl Sulfoxide (DMSO) and hydrochloric acid were obtained from Kanto Chemical (TOKYO, JP). Trizma Base (Tris), Bovine Serum Albumin (BSA) and Sodium tungstate dihydrate were obtained from Sigma Chemicals (St. Louis, Mo.). Dithiothreitol (DTT) and Dextran 70 were obtained from GE Healthcare (Buckinghamshire, UK). Glycerol was obtained from Junsei Chemical (TOKYO, JP). Norit® “SX-II” was obtained from Wako Pure Chemical Industries, Ltd. (Osaka, JP). MeltiLex™, A, Printed Filtermat A and Sample Bag were obtained from PerkinElmer (Boston, Mass.).
As a buffer for GR binding assay, 25 mM Tris-HCl (4° C., pH 7.4)/1 mM EDTA·2Na/1 mM DTT/0.1% BSA was prepared and used. As buffers for PRB and MR binding assay, 10 mM Tris-HCl (4° C., pH 7.4)/1 mM DTT/0.1% BSA/10% glycerol and 20 mM Tris-HCl (4° C., pH 7.4)/1 mM EDTA·2Na/10% glycerol/20 mM sodium tungstate were respectively prepared and used. As dextran-coated charcoal (DCC) for B/F separation, 0.75% Dextran 70/0.75% Norit® SX-II/10 mM Tris-HCl (4° C., pH 7.4) was prepared and used.
Compound storage solutions (5-20 mM) were prepared using DMSO. The storage solutions were diluted with DMSO to 0.1 mM (for GR) and 0.3 mM (for PRB and MR), and further diluted 20-fold with distilled water to give solutions. Then, the preparations were diluted to each concentration with 5% DMSO solution. 1% DMSO was present at the time of the binding assay.
In the case of PRB binding assay, [^3H]-Prog (about 5 nM), PRB cytosol (concentration of function receptor: about 4 pmol/mL), a test compound and a binding buffer were mixed in a total volume of 50 μL, and the mixture was stood at 4° C. for 30 min or longer. A specific binding was defined to be the difference in the [^3H]-Prog binding between the presence and the absence of 1 μM unlabeled Prog.
After the reaction, 50 μL of DCC was added to each well and blended. Thereafter, the mixture was stood at 4° C. for 10 min. The plate was applied to high-speed cooling centrifuge under the conditions of 4° C., 2000 rpm, 5 min to perform B/F separation. A given amount of the supernatant was recovered, which was spotted on Filtermat A of 96 well format (PerkinElmer) and rapidly dried at a high temperature. Then, solid scintillator MeltiLex A (PerkinElmer) was melted on Filtermat A. The mixture was placed in a Sample Bag (PerkinElmer), and the level of radioactivity was measured by plate reader 1450 Micro Beta TRILUX (PerkinElmer).
Measurement of Inhibition Constant (Ki)

Each structure is given as a SMILES string.

The values that follow come from patent publication US8367695B2, “Condensed tetrahydroquinoline derivative and use thereof for medical purposes” (Mitsubishi Tanabe Pharma Corporation, priority 2007, dated 2013).

Usually Ki stands for a dissociation constant, usually derived from enzyme kinetics or from competition with a known ligand. On to `CC1(C)Nc2c(cc(-c3ccnc4ncccc34)c3c2CCO3)C(C)(C)C1=O` [Example 92, 2,2,4,4-tetramethyl-6-([1,8]naphthyridin-4-yl)-1,2,3,4,8,9-hexahydro-furo[2,3-h]quinolin-3-one], for which the Ki was greater than 1250 nM.

As to `Cc1onc(CO)c1-c1cc2c(c3ccoc13)NC(C)(C)C(=O)C2(C)C` [Example 94, 6-(3-hydroxymethyl-5-methylisoxazol-4-yl)-2,2,4,4-tetramethyl-1,2,3,4-tetrahydro-furo[2,3-h]quinolin-3-one], the Ki is greater than 1250 nM.

As to `CC1(C)Nc2c(cc(-c3cccc4nccn34)c3occc23)C(C)(C)C1=O` [Example 98, 6-(imidazo[1,2-a]pyridin-5-yl)-2,2,4,4-tetramethyl-1,2,3,4-tetrahydro-furo[2,3-h]quinolin-3-one], the Ki amounted to 1050 nM.

On to `CC1(C)Nc2c(cc(-c3cncc4nccn34)c3occc23)C(C)(C)C1=O` [Example 100, 6-(imidazo[1,2-a]pyrazin-5-yl)-2,2,4,4-tetramethyl-1,2,3,4-tetrahydro-furo[2,3-h]quinolin-3-one], for which the Ki was greater than 1250 nM.

Consider `CC1(C)Nc2c(cc(-c3cccc4ncccc34)c3occc23)C(C)(C)C1=O` [Example 101, 2,2,4,4-tetramethyl-6-(quinolin-5-yl)-1,2,3,4-tetrahydro-furo [2,3-h]quinolin-3-one], for which the Ki is 1220 nM.

With `CC1(C)Nc2c(cc(-c3ccnc4ncccc34)c3occc23)C(C)(C)C1=O` [Example 102, 2,2,4,4-tetramethyl-6-([1,8]naphthyridin-4-yl)-1,2,3,4-tetrahydro-furo[2,3-h]quinolin-3-one], the Ki is greater than 1250 nM.

In the case of `Cc1noc(C)c1-c1cc2c(c3c1C(=O)CC3)NC(C)(C)C(=O)C2(C)C` [Example 104, 6-(3,5-dimethylisoxazol-4-yl)-2,2,4,4-tetramethyl-2,3,4,7,8,9-hexahydro-1H-cyclopenta[h]quinoline-3,7-dione], the Ki was greater than 1250 nM.
